Data on 8 compounds can be found in patent US11987575B2, “Tricyclic compounds as BCR-ABL inhibitors” (ASCENTAGE PHARMA (SUZHOU) CO., LTD., priority 2019, dated 2024).

In test [1] the target is BaF3 (T315I mutant) (Homo sapiens, UniProt P00519, T315I, cells depend on it). Kind of test: WST (CCK-8) anti-proliferative assay, BaF3 T315I mutant. The conditions noted are these: read-out: BaF3 (T315I mutant), 72 h treatment, CCK-8 readout OD 450 nm.
Procedure: (§1) The anti-proliferative effect of representative compounds of the present disclosure was determined by a water-soluble tetrazolium (WST)-based assay using Cell Counting Kit-8 (CCK-8). Cells were seeded in 96-well plates and treated with different concentrations of test articles for 72 h. Each treatment was tested in triplicate. Briefly, a series of 9 concentrations were chosen for each test article and added at 100 μl/well into a 96-well plate. Each concentration was tested in triplicate. 100 μl of diluent was added into 3-6 wells in the same plate for cell control group, and another set of 3-6 wells was used as a blank control.
(§2) In each well, 100 μl of cell suspension (containing optimal cell numbers, which creates approximately 100% confluence of cells in control wells based on by the absorbance (OD) value) was dispensed into the same 96-well plate except for the blank well. The plate was then cultured at 37° C. in an incubator in an atmosphere with 5% CO2 for 72 h. At the end of the treatments, 20 μl/well of CCK-8 reagent was directly added to each well. The plate was then incubated at 37° C. in an incubator in an atmosphere with 5% CO2 for 2-4 hours.
(§3) The cells viability was calculated using the mean OD value of triplicated wells following the equation below: (OD sample−OD blank)/(OD cell control−OD blank)×100 IC50 values were calculated with Graphpad Prism 6.0 software using nonlinear regression (curve fitting) type data analysis.
The target in test [2] is BaF3(WT) (Homo sapiens, UniProt P00519). Kind of test: WST (CCK-8) anti-proliferative assay, BaF3 WT. The settings on record: read-out: BaF3(WT); BaF3 WT cells, 72 h treatment, CCK-8 readout OD 450 nm.
Procedure: as §1, §2, §3

Take `CC(C)C(=O)NC1CCC2c3cc(C(=O)Nc4ccc(OC(F)(F)Cl)cc4)cc(-c4ccn[nH]4)c3N(C(C)C)C12` (stereo not shown) [Compound 7]: the results for the GI50 in test [1] and in test [2] were 142 nM and 14 nM, respectively.
Taken in the same sequence, the figures for `CC(C)N1c2c(-c3ccn[nH]3)cc(C(=O)Nc3ccc(OC(F)(F)Cl)cc3)cc2C2CCN(C)CC21` (stereo not shown) [Compound 40, N-(4-(chlorodifluoromethoxy)phenyl)-9-isopropyl-2-methyl-8-(1H-pyrazol-5-yl)-2,3,4,4a,9,9a-hexahydro-1H-pyrido[3,4-b]indole-6-carboxamide] were 1110 nM and 358 nM.
Taken in the same sequence, the figures for `CC(=O)N[C@H]1CC[C@@H]2c3cc(C(=O)Nc4ccc(OC(F)(F)Cl)cc4)cc(-c4ccn[nH]4)c3N(C(C)C)[C@H]12` [Compound 4-B, (3S,3aS,8bR)-3-acetamido-N-(4-(chlorodifluoromethoxy)phenyl)-4-isopropyl-5-(1H-pyrazol-5-yl)-1,2,3,3a,4,8b-hexahydrocyclopenta[b]indole-7-carboxamide] were 1270 nM and 535 nM.
Taken in the same sequence, the figures for `CC(=O)N[C@@H]1CC[C@H]2c3cc(C(=O)Nc4ccc(OC(F)(F)Cl)cc4)cc(-c4ccncn4)c3N(CC(C)(C)C)[C@@H]12` [Compound 57-A] were 316 nM and 97 nM.
Consider `CC(=O)N[C@@H]1CC[C@H]2c3cc(C(=O)Nc4ccc(OC(F)(F)Cl)cc4)cc(-c4ccn[nH]4)c3N(CC(C)(C)C)[C@@H]12` [Compound 22-A, (3R,3aR,8bS)-3-acetamido-N-(4-(chlorodifluoromethoxy)phenyl)-4-neopentyl-5-(1H-pyrazol-5-yl)-1,2,3,3a,4,8b-hexahydrocyclopenta[b]indole-7-carboxamide], for which the GI50 in test [1] was 21 nM; in test [2] it was 3 nM.
The corresponding values for `CC(=O)N[C@H]1CC[C@@H]2c3cc(C(=O)Nc4ccc(OC(F)(F)Cl)cc4)cc(-c4ccn[nH]4)c3N(CC(C)(C)C)[C@H]12` [Compound 22-B, (3S,3aS,8bR)-3-acetamido-N-(4-(chlorodifluoromethoxy)phenyl)-4-neopentyl-5-(1H-pyrazol-5-yl)-1,2,3,3a,4,8b-hexahydrocyclopenta[b]indole-7-carboxamide] are 1010 nM and 482 nM.
The corresponding values for `CC(=O)N[C@@H]1CC[C@H]2c3cc(C(=O)Nc4ccc(OC(F)(F)Cl)cc4)cc(-c4cncc(F)c4)c3N(C(C)C)[C@@H]12` [Compound 46-A] are 8 nM and 2 nM.
With `CC(C)N1c2c(-c3ccn[nH]3)cc(C(=O)Nc3ccc(OC(F)(F)Cl)cc3)cc2C2CCC(N3CCCC3=O)C21` (stereo not shown) [Compound 35, N-(4-(chlorodifluoromethoxy)phenyl)-4-isopropyl-3-(2-oxopyrrolidin-1-yl)-5-(1H-pyrazol-5-yl)-1,2,3,3a,4,8b-hexahydrocyclopenta[b]indole-7-carboxamide], the GI50 was found to be 55 nM in test [1] and 12 nM in test [2].
